Assay results taken from a compilation of properties of binary mixtures (doi:10.1016/j.molliq.2016.09.008).

Assay: xn = mol fraction of the nth substance listed
Conditions: 298.15 K, 101 kPa

C[N+](=O)[O-] + CC[NH3+].O=[N+]([O-])[O-]
electrical conductivity (x1 = 1): 0.0031 S/m
viscosity (x1 = 1): 0.637 mPa·s

CC[NH3+].O=[N+]([O-])[O-] + C[N+](=O)[O-]
electrical conductivity (x1 = 0.0034): 0.0549 S/m
viscosity (x1 = 0.0034): 0.652 mPa·s
electrical conductivity (x1 = 0.0062): 0.0721 S/m
viscosity (x1 = 0.0062): 0.662 mPa·s
electrical conductivity (x1 = 0.0112): 0.0945 S/m
viscosity (x1 = 0.0112): 0.679 mPa·s
electrical conductivity (x1 = 0.0129): 0.1 S/m
viscosity (x1 = 0.0129): 0.683 mPa·s
electrical conductivity (x2 = 0.0498): 2.34 S/m
viscosity (x2 = 0.0498): 34.1 mPa·s
electrical conductivity (x2 = 0.1048): 2.4 S/m
viscosity (x2 = 0.1048): 31.5 mPa·s
electrical conductivity (x2 = 0.2032): 2.56 S/m
viscosity (x2 = 0.2032): 23.9 mPa·s
electrical conductivity (x2 = 0.3007): 2.7 S/m
viscosity (x2 = 0.3007): 20.3 mPa·s
electrical conductivity (x2 = 0.3874): 2.94 S/m
viscosity (x2 = 0.3874): 15.3 mPa·s
electrical conductivity (x2 = 0.4983): 2.71 S/m
viscosity (x2 = 0.4983): 8.52 mPa·s
